# Read-outs that look alike come from different tables or passages of the source.
# Key:
# ATR/ATRIP enzyme = target: T1, ATR/ATRIP enzyme (Homo sapiens, UniProt Q13535); assay: ATR enzyme activity experiment (HTRF); format: biochemical; details: p53 substrate, 30 min room temperature, read-out: IC50 (nM), inhibitory effect on ATR kinase activity
# T1 construct: purchased Eurofins 14-953
# Procedure: The mixture was centrifuged at 1000 rpm for 1 minute, and reacted at room temperature protected from light for 30 minutes. Then 5 μL of EDTA stop solution (250 mM) was added to stop the reaction.
# [1] = test system: human lung cancer NCI-H460 cell; assay: MTT proliferation assay, NCI-H460; format: cell-based; details: NCI-H460, 96 h, read-out: IC50 (nM), proliferation of NCI-H460 cell
# Procedure: The cells were digested by trypsinase and centrifuged at 800 rpm for 5 minutes, the supernatant was discarded, and the residual was resuspended with fresh medium […]) and counted.
# (§1) The cells were seeded into 96-well cell culture plate with a density of 2000/4000 cells per well and incubated overnight in a 5% CO2 incubator at 37° C. […] 5 μL diluent of each concentration was added to 120 μL of medium (25 times diluted) and mixed by shaking. The overnight cell plates were taken and the culture medium was removed, 195 μL of fresh medium was added to each well, and 5 μL of diluted medium containing the corresponding concentration of the test compound was added respectively (the final concentration of DMSO is 1%), and the culture plate was then placed in a 5% CO2 incubator at 37° C. for 4 days. After removing the original solution, 100 μL of fresh serum-free DMEM medium containing MTT (0.5 mg/mL) was added to each well, the culture was continued. […] Cell viability (%)=(ODcompound−ODbackground)/(ODDMSO−ODbackground)×100. GraphPad Prism 6.0 was used to analyze the data. The inhibitory activity of compounds on cell proliferation was plotted based on cell viability and the logarithm of compound concentration. The IC50 value was fitted by a sigmoidal dose response curve equation Y−100/(1+10^(LogC−LogIC50)), wherein C was the concentration of compound.
# [2] = test system: human colon cancer LoVo cell; assay: MTT proliferation assay, LoVo; format: cell-based; details: Homo sapiens, LoVo, 96 h, read-out: IC50 (nM), proliferation of LoVo cell
# Procedure: as §1, with “[…]” for “100 μL”, “viability (%)=(ODcompound−ODbackground)/ODDMSO−ODbackground)×100.” for “viability (%)=(ODcompound−ODbackground)/(ODDMSO−ODbackground)×100.”, “The IC5.0” for “The IC50”, “equation Y=100/(1+10^(LogC-LogIC50)),” for “equation Y−100/(1+10^(LogC−LogIC50)),”
# [3] = Pharmacokinetics following single oral administration to mice; format: in vivo; details: mouse, CD-1 (ICR) mice, gavage 10 mg/kg, 0.5% methylcellulose/water suspension, plasma
# Procedure: The compound of the present invention was formulated into a 0.5% methylcellulose/water uniform suspension, and was administered to CD-1 (ICR) mice by gavage at 10 mg/kg. Plasma samples were collected at 8 time points of 0.250, 0.500, 1.00, 2.00, 4.00, 6.00, 8.00 and 24.0 hours post-dose. Concentrations of the compound were determined by LC-MS/MS method.
# T1 sequence (Q13535 whole entry): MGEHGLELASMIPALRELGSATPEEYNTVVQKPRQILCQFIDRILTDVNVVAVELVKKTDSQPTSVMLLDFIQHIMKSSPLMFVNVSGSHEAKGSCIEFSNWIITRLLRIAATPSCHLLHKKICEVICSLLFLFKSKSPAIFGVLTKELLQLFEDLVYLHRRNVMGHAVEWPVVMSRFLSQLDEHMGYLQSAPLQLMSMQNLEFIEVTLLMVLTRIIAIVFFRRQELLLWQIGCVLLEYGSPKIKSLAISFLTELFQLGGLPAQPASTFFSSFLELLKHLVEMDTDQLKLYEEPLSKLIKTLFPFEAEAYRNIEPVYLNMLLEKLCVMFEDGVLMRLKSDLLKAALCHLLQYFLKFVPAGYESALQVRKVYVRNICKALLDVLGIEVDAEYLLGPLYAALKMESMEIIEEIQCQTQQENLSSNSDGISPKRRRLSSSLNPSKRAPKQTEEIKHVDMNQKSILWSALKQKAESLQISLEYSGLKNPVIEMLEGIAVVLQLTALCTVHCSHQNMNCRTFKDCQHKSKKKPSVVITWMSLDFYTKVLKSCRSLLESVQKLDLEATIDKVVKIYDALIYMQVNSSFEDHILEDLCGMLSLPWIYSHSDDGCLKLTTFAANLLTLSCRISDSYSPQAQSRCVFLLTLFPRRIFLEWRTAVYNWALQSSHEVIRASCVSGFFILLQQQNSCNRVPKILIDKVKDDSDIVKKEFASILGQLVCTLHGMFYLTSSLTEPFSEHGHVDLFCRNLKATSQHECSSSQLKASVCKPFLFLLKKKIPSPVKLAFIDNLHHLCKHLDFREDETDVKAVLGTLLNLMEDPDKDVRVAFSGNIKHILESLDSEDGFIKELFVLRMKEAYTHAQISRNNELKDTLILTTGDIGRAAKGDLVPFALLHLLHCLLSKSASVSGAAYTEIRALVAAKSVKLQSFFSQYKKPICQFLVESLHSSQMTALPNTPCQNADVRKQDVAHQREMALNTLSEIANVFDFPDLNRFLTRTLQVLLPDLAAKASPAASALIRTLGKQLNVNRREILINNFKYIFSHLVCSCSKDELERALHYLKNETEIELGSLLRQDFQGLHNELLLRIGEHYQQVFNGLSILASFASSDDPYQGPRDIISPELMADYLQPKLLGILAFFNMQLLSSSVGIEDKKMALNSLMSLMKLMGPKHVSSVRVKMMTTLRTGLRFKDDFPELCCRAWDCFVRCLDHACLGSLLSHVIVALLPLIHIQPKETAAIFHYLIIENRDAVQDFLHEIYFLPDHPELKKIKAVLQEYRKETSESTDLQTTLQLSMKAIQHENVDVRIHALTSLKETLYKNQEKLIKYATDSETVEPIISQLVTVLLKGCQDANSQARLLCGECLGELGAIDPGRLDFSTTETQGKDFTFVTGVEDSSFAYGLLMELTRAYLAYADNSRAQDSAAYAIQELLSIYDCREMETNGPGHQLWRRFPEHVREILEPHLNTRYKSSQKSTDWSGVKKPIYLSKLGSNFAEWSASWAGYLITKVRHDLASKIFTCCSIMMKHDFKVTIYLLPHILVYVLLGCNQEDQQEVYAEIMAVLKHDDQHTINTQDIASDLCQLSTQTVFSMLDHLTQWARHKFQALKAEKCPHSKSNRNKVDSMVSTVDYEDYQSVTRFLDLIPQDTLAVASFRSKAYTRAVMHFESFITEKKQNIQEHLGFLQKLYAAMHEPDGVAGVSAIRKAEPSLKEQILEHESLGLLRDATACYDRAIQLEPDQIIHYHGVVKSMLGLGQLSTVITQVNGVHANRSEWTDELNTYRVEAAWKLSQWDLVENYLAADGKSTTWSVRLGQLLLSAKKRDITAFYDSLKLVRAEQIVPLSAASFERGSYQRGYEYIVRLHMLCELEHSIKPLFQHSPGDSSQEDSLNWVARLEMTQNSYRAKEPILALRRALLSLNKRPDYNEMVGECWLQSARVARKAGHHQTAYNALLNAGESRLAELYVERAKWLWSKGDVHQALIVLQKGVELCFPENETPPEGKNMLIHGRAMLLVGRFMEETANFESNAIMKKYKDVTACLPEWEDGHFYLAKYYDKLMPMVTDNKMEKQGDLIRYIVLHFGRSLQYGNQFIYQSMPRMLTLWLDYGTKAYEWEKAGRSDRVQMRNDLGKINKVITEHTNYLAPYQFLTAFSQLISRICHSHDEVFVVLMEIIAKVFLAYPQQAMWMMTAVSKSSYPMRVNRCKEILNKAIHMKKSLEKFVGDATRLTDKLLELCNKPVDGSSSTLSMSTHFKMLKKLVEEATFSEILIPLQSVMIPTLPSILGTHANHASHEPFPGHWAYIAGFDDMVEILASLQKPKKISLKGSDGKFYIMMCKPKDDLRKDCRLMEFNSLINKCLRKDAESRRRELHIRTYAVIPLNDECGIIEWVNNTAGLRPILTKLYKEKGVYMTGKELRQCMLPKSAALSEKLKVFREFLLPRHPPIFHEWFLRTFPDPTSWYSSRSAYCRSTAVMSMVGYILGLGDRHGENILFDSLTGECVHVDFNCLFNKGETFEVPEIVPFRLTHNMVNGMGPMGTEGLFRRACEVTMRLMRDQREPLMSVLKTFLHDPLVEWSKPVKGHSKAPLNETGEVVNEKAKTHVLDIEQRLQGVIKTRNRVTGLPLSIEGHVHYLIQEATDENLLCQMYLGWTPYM
# T1 sequence (Q8WXE1 whole entry partner): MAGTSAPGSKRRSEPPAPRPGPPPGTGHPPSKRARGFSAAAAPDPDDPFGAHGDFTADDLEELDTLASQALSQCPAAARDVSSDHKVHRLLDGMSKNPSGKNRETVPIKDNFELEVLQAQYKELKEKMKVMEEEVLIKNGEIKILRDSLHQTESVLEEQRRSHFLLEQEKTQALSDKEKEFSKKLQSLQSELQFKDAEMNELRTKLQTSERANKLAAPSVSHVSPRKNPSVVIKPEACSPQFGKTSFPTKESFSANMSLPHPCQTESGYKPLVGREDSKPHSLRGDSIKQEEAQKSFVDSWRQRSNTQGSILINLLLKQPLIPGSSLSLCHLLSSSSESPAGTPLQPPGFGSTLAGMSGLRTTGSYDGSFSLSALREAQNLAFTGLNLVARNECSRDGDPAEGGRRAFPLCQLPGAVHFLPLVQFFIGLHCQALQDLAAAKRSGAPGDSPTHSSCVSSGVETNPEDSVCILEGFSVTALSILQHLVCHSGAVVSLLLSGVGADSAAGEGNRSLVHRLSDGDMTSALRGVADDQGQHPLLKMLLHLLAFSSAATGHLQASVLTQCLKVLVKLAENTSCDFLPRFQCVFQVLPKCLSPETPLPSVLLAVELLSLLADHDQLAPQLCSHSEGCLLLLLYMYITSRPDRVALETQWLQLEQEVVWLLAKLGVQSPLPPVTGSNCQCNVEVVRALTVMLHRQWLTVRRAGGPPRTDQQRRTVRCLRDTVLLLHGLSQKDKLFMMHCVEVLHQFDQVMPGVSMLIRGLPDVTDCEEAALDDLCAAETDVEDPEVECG
SMILES,IC50 (ATR/ATRIP enzyme),IC50 [1],IC50 [2],AUC(0-inf) [3],AUC(0-t) [3],Cmax [3],half-life [3],"IC50 ([1]; MTT, 4 days)","IC50 ([2]; MTT, 4 days)"
"CCc1nc(-c2ccn[nH]2)n2nc(N3CCOC[C@H]3C)cc(-c3ccnn3C)c12 [Example 24, (R)-4-(5-ethyl-4-(1-methyl-1H-pyrazol-5-yl)-7-(1H-pyrazol-5-yl)imidazo[1,5-b]pyridazin-2-yl)-3-methylmorpholine]",2 nM,28 nM,38.8 nM,171000 ng·h/mL,162000 ng·h/mL,15400 ng/mL,5.4 h,–,–
"C[C@@H]1COCCN1c1cc(-c2ccnn2C)c2c(Cl)nc(-c3ccn[nH]3)n2n1 [Example 21, (R)-4-(5-chloro-4-(1-methyl-1H-pyrazol-5-yl)-7-(1H-pyrazol-5-yl)imidazo[1,5-b]pyridazin-2-yl)-3-methylmorpholine]",6 nM,–,–,42900 ng·h/mL,42800 ng·h/mL,7340 ng/mL,2.65 h,24.1 nM,22.4 nM
"Cc1nc(-c2ccn[nH]2)n2nc(N3CCOC[C@H]3C)cc(-c3cccnc3C(F)(F)F)c12 [Example 5, (R)-3-methyl-4-(5-methyl-7-(1H-pyrazol-5-yl)-4-(2-(trifluoromethyl)pyridin-3-yl)imidazo[1,5-b]pyridazin-2-yl)morpholine]",3 nM,–,–,31700 ng·h/mL,30800 ng·h/mL,8930 ng/mL,3.42 h,17.8 nM,25.5 nM
"C[C@@H]1COCCN1c1cc(-c2ccnn2C)c2c(Br)nc(-c3ccn[nH]3)n2n1 [Example 22, (R)-4-(5-bromo-4-(1-methyl-1H-pyrazol-5-yl)-7-(1H-pyrazol-5-yl)imidazo[1,5-b]pyridazin-2-yl)-3-methylmorpholine]",2 nM,–,–,63000 ng·h/mL,59000 ng·h/mL,7670 ng/mL,5.88 h,17.1 nM,24.1 nM
"Cc1nc(-c2ccn[nH]2)n2nc(N3CCOC[C@H]3C)cc(-c3ccccc3F)c12 [Example 14, (R)-4-(4-(2-fluorophenyl)-5-methyl-7-(1H-pyrazol-5-yl)imidazo[1,5-b]pyridazin-2-yl)-3-methylmorpholine]",10 nM,–,–,78700 ng·h/mL,77300 ng·h/mL,10800 ng/mL,3.75 h,32 nM,26.2 nM
